In patent US20220096516A1, “OLIGONUCLEOTIDE MOLECULE AND APPLICATION THEREOF IN TUMOR THERAPY” (Ractigen Therapeutics, priority 2019, published 2022):

Legend:
[1] = test system: HepG2 transplanted tumor; assay: HepG2 transplanted tumor growth in nude mice; set-up: species or system BALB/c nude mice; conditions: HepG2 xenograft, day 13; saRNA (in vivo-jetPEI) 1 mg/kg intratumor days 1, 4, 7, 10; regorafenib 3 mg/kg intragastric daily day 1-12; vehicle 118%
Experimental: To prepare the saRNA formulation, the in vivo-jetPEI (201-10G, Polyplus-transfection, France) was adopted as an saRNA delivery system. The preparation process is briefly described as follows. An saRNA was first diluted in 10% glucose solution to obtain a solution A. According to the instructions of the manufacturer, a required amount of in vivo-jetPEI was diluted in 10% glucose solution to obtain a solution B. Equal volumes of the solution A and the solution B were mixed (nitrogen-to-phosphorus ratio: 8; final concentration of glucose: 5%). After mixing, the mixture was let to stand at room temperature for 15 minutes for later use.
HepG2 cells in the logarithmic growth phase were obtained and counted, and then the cell suspension was regulated to 5×10^7 cells/mL and subcutaneously inoculated into the right armpit of BALB/c nude mice at a volume of 0.1 mL per mouse. […] Starting from the initial administration, the long diameter and the short diameter of each tumor were measured with a vernier caliper every two days. The tumor volume was calculated according to the formula V=(l×w^2)/2, wherein 1 represents the longest diameter of the tumor and w represents the diameter parallel to the surface of the tumor and perpendicular to the long diameter. A tumor growth curve and size and morphology of the tumor after anatomy were recorded during the administration.

[2] = test system: U87MG transplanted tumor; assay: U87MG transplanted tumor growth in nude mice; set-up: species or system BALB/c nude mice; conditions: U87MG xenograft, day 13; saRNA (in vivo-jetPEI) 1 mg/kg intratumor days 1, 4, 7, 10; regorafenib 3 mg/kg intragastric daily day 1-12; control 406%
Experimental: To prepare the saRNA formulation, in vivo-jetPEI (201-10G, Polyplus-transfection, France) was adopted as an saRNA delivery system. The preparation process is briefly described as follows: an saRNA was first diluted in a 10% glucose solution to give a solution A; a required amount of in vivo-jetPEI was diluted in 10% glucose solution to give a solution B; then, equal volumes of the solution A and the solution B were mixed (nitrogen-to-phosphorus ratio: 8; final concentration of glucose: 5%). After mixing the mixture was let to stand under room temperature for 15 minutes for later use.
The glioma cell line U87MG were grown to the logarithmic phase, counted, then subcutaneously inoculated at a concentration of 9×10^7 cells/mL into the right armpit of BALB/c nude mice at 0.1 mL per mouse. […] After the initial administration, the long diameter and short diameter of each tumor were measured with a vernier caliper every two days. The tumor volume was calculated according to the formula V=(l×w^2)/2, wherein 1 represents the longest diameter of the tumor and w represents the diameter parallel to the surface of the tumor and perpendicular to the long diameter. A tumor growth curve and size and morphology of the tumor anatomy were recorded during the administration.

For CNC(=O)c1cc(Oc2ccc(NC(=O)Nc3ccc(Cl)c(C(F)(F)F)c3)c(F)c2)ccn1 [regorafenib, Regorafenib, reference compound], the “tumor volume increase compared with that at the beginning of treatment” value [1] was 70% and the “tumor volume increase compared with that at the beginning of treatment” value [2] was 251%.
